What was measured:
Palmer amaranth = experiment: Post-emergence application in Palmer amaranth under greenhouse conditions (Example 7); assay type: in vivo; conditions: 24 days after application
Excerpt: (§1) The following testing protocol was employed to evaluate the post-emergence application of herbicides and herbicide combinations as described in the following examples unless otherwise specified. The weed species to be treated were planted in 3.5 inch pots containing redi-earth potting mix and grown under greenhouse conditions. When the weed species reached a height of about four inches, herbicide was applied at the specified application rate using a track sprayer with a flat even nozzle type, 9501E nozzle size, and spray pressure of 165 kPa. After the application of the herbicide(s), the pots were only sub-irrigated as needed. Throughout the test period, temperature was maintained from about 20° C. to about 30° C. and relative humidity was maintained at about 30%. The plants were rated visually and percentage of weed control was determined for each treatment at 15 to 21 days after herbicide application.
(§2) Post-emergence application of several herbicides and herbicide combinations was evaluated in Palmer amaranth under greenhouse conditions. The plants were rated visually and percentage of weed control was determined at 24 days after herbicide application. The herbicides and herbicide combinations evaluated are listed in Table 7-A below together with the corresponding percent control data. The data represent an average value (n=6).
The results of the analysis are reported below in Table 7-B (glyphosate+dicamba), Table 7-C(glyphosate+metribuzin), and Table 7-D (dicamba+metribuzin).

velvetleaf = experiment: Post-emergence application in velvetleaf under greenhouse conditions (Example 8); assay type: in vivo
Excerpt: as §1
as §2, with “velvetleaf” for “Palmer amaranth”, “8-A” for “7-A”
The results of the analysis are reported below in Table 8-B (glyphosate+dicamba), Table 8-C(glyphosate+metribuzin), and Table 8-D (dicamba+metribuzin).

O=C(O)CNCP(=O)(O)O [Glyphosate]
PERCENT CONTROL (Palmer amaranth; 560 g/ha): 20.0% | PERCENT CONTROL (Palmer amaranth; 1120 g/ha): 50.0% | PERCENT CONTROL (ACTUAL) (velvetleaf; 560 g/ha, 24 days after application): 81.0% | PERCENT CONTROL (ACTUAL) (velvetleaf; 1120 g/ha, 24 days after application): 100.0% | PERCENT CONTROL (ACTUAL) (velvetleaf; Table 8-C, velvetleaf, 24 days, dose 560 g/ha): 81.0% | PERCENT CONTROL (ACTUAL) (velvetleaf; Table 8-C, velvetleaf, 24 days, dose 1120 g/ha): 100.0%

Source: patent US20150313228A1, “SYNERGISTIC HERBICIDAL COMBINATIONS AND METHODS OF USE” (priority 2012, published 2015)
